The supplement of paper PMC10307832

Tests used:
Assay in all cases: relative viability (nuclei count vs DMSO), 5 days (fraction); higher = more cells survive
BMX-IN-1 + Crizotinib = compound: C=CC(=O)Nc1cc(-n2c(=O)ccc3cnc4ccc(-c5ccc(NS(C)(=O)=O)cc5)cc4c32)ccc1C [BMX-IN-1] + C[C@@H](Oc1cc(-c2cnn(C3CCNCC3)c2)cnc1N)c1c(Cl)ccc(F)c1Cl [Crizotinib] (partner 1 µM)
Outline: (§1)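 The day after seeding in 1536-well plates, lung cancer cell lines were treated by pin tool with a single drug, or with a fixed anchor-drug dose together with five library-drug doses (not always all listed) in √10 steps. After 5 days, a combined fix-and-stain solution (final 0.05% Triton X-100, 1% formaldehyde, 1 ug/ml Hoechst) was added. Nuclei counted on 4× images gave relative viability as treated counts over vehicle counts, reported as the median of duplicate plates.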

BMX-IN-1 + Bortezomib = compound: C=CC(=O)Nc1cc(-n2c(=O)ccc3cnc4ccc(-c5ccc(NS(C)(=O)=O)cc5)cc4c32)ccc1C [BMX-IN-1] + CC(C)C[C@H](NC(=O)[C@H](Cc1ccccc1)NC(=O)c1cnccn1)B(O)O [Bortezomib] (partner 0.002 µM)
Outline: as §1

Ibrutinib + Bortezomib = compound: C=CC(=O)N1CCC[C@@H](n2nc(-c3ccc(Oc4ccccc4)cc3)c3c(N)ncnc32)C1 [Ibrutinib] + CC(C)C[C@H](NC(=O)[C@H](Cc1ccccc1)NC(=O)c1cnccn1)B(O)O [Bortezomib] (partner 0.002 µM)
Outline: as §1

BMX-IN-1 + Dasatinib = compound: C=CC(=O)Nc1cc(-n2c(=O)ccc3cnc4ccc(-c5ccc(NS(C)(=O)=O)cc5)cc4c32)ccc1C [BMX-IN-1] + Cc1nc(Nc2ncc(C(=O)Nc3c(C)cccc3Cl)s2)cc(N2CCN(CCO)CC2)n1 [Dasatinib] (partner 0.075 µM)
Outline: as §1

| Cell Line | relative viability (BMX-IN-1 + Crizotinib; first compound 0.02 µM) | relative viability (BMX-IN-1 + Crizotinib; first compound 0.2 µM) | relative viability (BMX-IN-1 + Crizotinib; first compound 0.6325 µM) | relative viability (BMX-IN-1 + Crizotinib; first compound 2 µM) | relative viability (BMX-IN-1 + Bortezomib; first compound 0.02 µM) | relative viability (BMX-IN-1 + Bortezomib; first compound 0.2 µM) | relative viability (BMX-IN-1 + Bortezomib; first compound 0.6325 µM) | relative viability (BMX-IN-1 + Bortezomib; first compound 2 µM) | relative viability (Ibrutinib + Bortezomib; first compound 0.005 µM) | relative viability (Ibrutinib + Bortezomib; first compound 0.01581 µM) | relative viability (Ibrutinib + Bortezomib; first compound 0.05 µM) | relative viability (Ibrutinib + Bortezomib; first compound 0.1581 µM) | relative viability (Ibrutinib + Bortezomib; first compound 0.5 µM) | relative viability (BMX-IN-1 + Dasatinib; first compound 0.02 µM) | relative viability (BMX-IN-1 + Dasatinib; first compound 0.2 µM) | relative viability (BMX-IN-1 + Dasatinib; first compound 0.6325 µM) | relative viability (BMX-IN-1 + Dasatinib; first compound 2 µM) |
| --- | --- | --- | --- | --- | --- | --- | --- | --- | --- | --- | --- | --- | --- | --- | --- | --- | --- |
| LC-2-ad | 0.374 | 0.518 | 0.484 | 0.494 | 1.02 | 1.28 | 1.01 | 1.04 | 1.18 | 1 | 1.06 | 0.965 | 1.02 | 0.658 | 0.737 | 0.74 | 0.642 |
| NCI-H596 | 1.13 | 1.18 | 1.03 | 0.827 | 0.9 | 1.28 | 1.31 | 0.988 | 1.21 | 0.457 | – | 0.834 | 0.92 | 0.66 | 0.618 | 0.674 | 0.672 |
| A-427 | 0.966 | 0.903 | 1.09 | 0.887 | 1.03 | 1.06 | 1.18 | 0.985 | 0.906 | 0.962 | 0.981 | 0.985 | 0.916 | 0.731 | 1.01 | 0.782 | 0.664 |
| HCC-827 | 0.972 | 0.939 | 0.939 | 0.97 | 1.11 | 1.09 | 1.16 | 1.11 | 1.19 | 1.05 | 1.15 | 0.982 | 0.807 | 0.296 | 0.277 | 0.371 | 0.276 |
| NCI-H1915 | 1.28 | 0.964 | 0.946 | 0.977 | 1.31 | 1.14 | 1.08 | 0.994 | – | 0.996 | 1 | 1.05 | 0.979 | 0.351 | 0.338 | 0.411 | 0.302 |
| NCI-H322M | 1.02 | 1.05 | 0.982 | 0.887 | 1.33 | 1.25 | 1.2 | 1.36 | 1.09 | 1.22 | 1.25 | 1.24 | 1.07 | 0.261 | 0.251 | 0.262 | 0.256 |
| EKVX | 1.18 | 1.29 | 0.882 | 1.01 | 1.42 | 1.23 | 1.11 | 1.19 | 0.894 | 0.929 | 0.975 | 0.925 | 0.489 | 0.532 | 0.474 | 0.484 | 0.59 |
| EMC-BAC-2 | 0.858 | 0.877 | 0.797 | 0.718 | 1.15 | 1.1 | 1.26 | 1.1 | 1 | 1 | 0.997 | 1.05 | 1.01 | 0.348 | 0.345 | 0.326 | 0.353 |
| HCC-15 | 0.991 | 0.945 | 0.953 | 0.762 | 1.25 | 1.06 | 1.24 | 1.1 | 1.13 | – | – | – | 1.1 | 0.662 | 0.64 | 0.745 | 0.64 |
| LXF-289 | 0.876 | 0.907 | 0.842 | 0.815 | 1.09 | 1.16 | 1.11 | 1.05 | 1.09 | 0.985 | 0.966 | 0.959 | 0.914 | 0.197 | 0.204 | 0.247 | 0.266 |
| NCI-H838 | 1.14 | 0.983 | 0.834 | 0.877 | 0.724 | 0.803 | 0.95 | 0.777 | 0.781 | 0.729 | 0.687 | 0.741 | 0.673 | 0.28 | 0.323 | 0.347 | 0.282 |
| NCI-H520 | 1.37 | 1.08 | 0.79 | 0.795 | 0.604 | 0.741 | 0.863 | 0.465 | 0.567 | 0.45 | 0.553 | 0.662 | 0.338 | 0.222 | 0.263 | 0.239 | 0.224 |
| SW 1573 | 0.869 | 0.97 | 0.879 | 0.767 | 1.38 | 1.06 | 1.08 | 0.996 | 0.771 | 0.97 | 0.8 | 0.992 | 0.984 | 0.531 | 0.63 | 0.456 | 0.528 |
| 201T | 1.03 | 1.05 | 1.09 | 1.05 | 1.13 | 1.07 | 1.12 | 1.1 | 1.05 | 1.06 | 1.13 | 1.09 | 1.09 | 0.659 | 0.681 | 0.687 | 0.567 |
| NCI-H1437 | 1.3 | 1.01 | 1.1 | 1.07 | 0.567 | 0.472 | 0.586 | 0.456 | 0.647 | 0.476 | 0.449 | 0.482 | 0.603 | 0.512 | 0.391 | 0.429 | 0.409 |
| NCI-H1975 | 1.31 | 1.02 | 1.11 | 0.86 | 0.356 | 0.338 | 0.45 | 0.433 | 0.417 | 0.328 | 0.274 | 0.383 | 0.226 | 0.362 | 0.382 | 0.457 | 0.38 |
| RERF-LC-KJ | 0.813 | 1.09 | 0.865 | 0.807 | 1.17 | 1.21 | 1.09 | 1.05 | 0.96 | 0.977 | 1.03 | 1 | 0.851 | 1.08 | 0.883 | 0.82 | 0.939 |
